Several values for one entry are separate records, joined by “and”; a condition that tells them apart may be missing. Equal values may be shown once. Inconclusive results and toxic doses are left out. Cut-off read from the data, not from the text of the source: active = T/C of 150% or more; inactive = T/C below 125%.
System: L1210 leukemia ip in BDF1 mice, survival T/C
Test: NCI In Vivo Anticancer Drug Screen. Data for tumor model L1210 Leukemia (intraperitoneal) in B6D2F1 (BDF1) mice
Details: endpoint: mean survival time, higher = longer survival
How it was run: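 In this screen, tumor-bearing mice given compound are compared to those given vehicle, and their survival values are reported as a treated-to-control quotient.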

[1] = dose: 50.0 mg/kg/injection, schedule: Q04DX003 (ip), vehicle: Klucel (hydroxypropylcellulose) (HPC)
[2] = dose: 100.0 mg/kg/injection, schedule: Q04DX003 (ip), vehicle: Klucel (hydroxypropylcellulose) (HPC)
[3] = dose: 200.0 mg/kg/injection, schedule: Q04DX003 (ip), vehicle: Klucel (hydroxypropylcellulose) (HPC)
[4] = dose: 400.0 mg/kg/injection, schedule: Q04DX003 (ip), vehicle: Klucel (hydroxypropylcellulose) (HPC)
[5] = dose: 100.0 mg/kg/injection, schedule: Q01DX009 (ip), vehicle: saline with Tween-80
[6] = dose: 100.0 mg/kg/injection, schedule: Q04DX003 (ip), vehicle: saline with Tween-80
[7] = dose: 200.0 mg/kg/injection, schedule: Q01DX009 (ip), vehicle: saline with Tween-80
[8] = dose: 200.0 mg/kg/injection, schedule: Q04DX003 (ip), vehicle: saline with Tween-80
[9] = dose: 400.0 mg/kg/injection, schedule: Q04DX003 (ip), vehicle: saline with Tween-80
[10] = dose: 400.0 mg/kg/injection, schedule: Q01DX009 (ip), vehicle: saline with Tween-80
[11] = dose: 100.0 mg/kg/injection, schedule: Q01DX009 (ip), vehicle: Klucel (hydroxypropylcellulose) (HPC)
[12] = dose: 200.0 mg/kg/injection, schedule: Q01DX009 (ip), vehicle: Klucel (hydroxypropylcellulose) (HPC)
[13] = dose: 100.0 mg/kg/injection, schedule: Q01DX001 (ip), vehicle: saline with Tween-80
[14] = dose: 200.0 mg/kg/injection, schedule: Q01DX001 (ip), vehicle: saline with Tween-80
[15] = dose: 400.0 mg/kg/injection, schedule: Q01DX001 (ip), vehicle: saline with Tween-80
[16] = dose: 400.0 mg/kg/injection, schedule: Q01DX009 (ip), vehicle: Klucel (hydroxypropylcellulose) (HPC)
[17] = dose: 25.0 mg/kg/injection, schedule: Q01DX009 (ip), vehicle: saline with Tween-80
[18] = dose: 100.0 mg/kg/injection, schedule: Q04DX002 (ip), vehicle: Klucel (hydroxypropylcellulose) (HPC)
[19] = dose: 400.0 mg/kg/injection, schedule: Q04DX002 (ip), vehicle: Klucel (hydroxypropylcellulose) (HPC)

Measured: T/C

O=C1CC2(CCCCC2)C(=O)N1N1CCCCCC1
inactive: dose: 100.0 mg/kg/injection, schedule: Q01DX001 (ip), vehicle: Klucel (hydroxypropylcellulose) (HPC) 102 % of control | dose: 200.0 mg/kg/injection, schedule: Q01DX001 (ip), vehicle: Klucel (hydroxypropylcellulose) (HPC) 100 % of control | dose: 400.0 mg/kg/injection, schedule: Q01DX001 (ip), vehicle: Klucel (hydroxypropylcellulose) (HPC) 97 % of control

Oc1c(Cl)cc(N=Cc2ccc(N(CCCCl)CCCCl)cc2Cl)cc1Cl
inactive: [1] 101 % of control | [2] 104 % of control | [3] 101 % of control | [4] 98 % of control

Cc1cccc(SC(=O)Cc2ccc([N+](=O)[O-])cc2)c1
inactive: [5] 91 % of control | [6] 109 % of control | [7] 96 % of control | [8] 102 % of control | [9] 119 % of control

CNc1cc([N+](=O)[O-])ccc1OCc1ccccc1
inactive: dose: 75.0 mg/kg/injection, schedule: Q01DX009 (ip), vehicle: saline with Tween-80 87 % of control | [6] 89 % of control | dose: 150.0 mg/kg/injection, schedule: Q01DX009 (ip), vehicle: saline with Tween-80 87 % of control | [8] 92 % of control | dose: 300.0 mg/kg/injection, schedule: Q01DX009 (ip), vehicle: saline with Tween-80 91 % of control | [9] 101 % of control

CCOC(=O)CN(C(=O)OCC)C(OCC)OCC
inactive: [5] 95 % of control | [7] 104 % of control | [10] 93 % of control

CN=C1C=C(NC)C(F)(F)C1(F)F
inactive: dose: 6.25 mg/kg/injection, schedule: Q01DX009 (ip), vehicle: saline sonified 96 % of control | dose: 12.5 mg/kg/injection, schedule: Q01DX009 (ip), vehicle: saline sonified 100 % of control | dose: 12.5 mg/kg/injection, schedule: Q04DX003 (ip), vehicle: Klucel (hydroxypropylcellulose) (HPC) 98 % of control | dose: 25.0 mg/kg/injection, schedule: Q01DX009 (ip), vehicle: saline sonified 91 % of control | dose: 25.0 mg/kg/injection, schedule: Q04DX003 (ip), vehicle: Klucel (hydroxypropylcellulose) (HPC) 98 % of control | [1] 97 % of control

O=C(N/C=C/NC(=O)NCc1ccco1)NCc1ccco1
inactive: [11] 97 % of control | [12] 87 % of control

CC1=C(CCCO)/C(=N/Nc2ccc([N+](=O)[O-])cc2[N+](=O)[O-])CCC1
inactive: dose: 25.0 mg/kg/injection, schedule: Q04DX002 (ip), vehicle: saline with Tween-80 97 % of control | [13] 105 % of control | [14] 87 % of control | [15] 92 % of control

O=[N+]([O-])c1cc(C(F)(F)F)cc([N+](=O)[O-])c1N/N=C/c1ccccc1Cl
inactive: [5] 91 % of control | [7] 95 % of control | [10] 90 % of control

O=[N+]([O-])c1cccc(C=Nc2cc(Cl)ccc2O)c1
inactive: [11] 95 % of control and 86 % of control | [12] 96 % of control and 97 % of control | [16] 100 % of control and 91 % of control

N#Cc1ccccc1NN=Nc1ccccc1-c1nc(N)nc(N)n1
inactive: dose: 25.0 mg/kg/injection, schedule: Q04DX003 (ip), vehicle: saline 97 % of control | dose: 50.0 mg/kg/injection, schedule: Q04DX003 (ip), vehicle: saline 103 % of control

O=S(=O)(/N=C1\C=CC=C\C1=N/S(=O)(=O)c1ccccc1)c1ccccc1
inactive: [13] 103 % of control | [14] 100 % of control | [15] 92 % of control

O=C1C(c2ccc(Br)cc2)=C(c2ccccc2)c2c(-c3ccccc3)cc(Br)c(-c3ccccc3)c21
inactive: [13] 90 % of control | [14] 90 % of control | [15] 87 % of control

CCC(C)(O)C#CC#CC(C)(O)CC (centres undefined)
inactive: dose: 6.25 mg/kg/injection, schedule: Q01DX009 (ip), vehicle: saline with Tween-80 93 % of control | dose: 12.5 mg/kg/injection, schedule: Q01DX009 (ip), vehicle: saline with Tween-80 100 % of control | dose: 12.5 mg/kg/injection, schedule: Q04DX003 (ip), vehicle: saline with Tween-80 101 % of control | [17] 96 % of control | dose: 25.0 mg/kg/injection, schedule: Q04DX003 (ip), vehicle: saline with Tween-80 97 % of control | dose: 50.0 mg/kg/injection, schedule: Q04DX003 (ip), vehicle: saline with Tween-80 87 % of control | [11] 93 % of control | [2] 103 % of control | [12] 101 % of control | [3] 106 % of control | [16] 102 % of control | [4] 104 % of control

COc1cccc(N=Nc2ccc(N(C)C)cc2)c1
inactive: dose: 100.0 mg/kg/injection, schedule: Q01DX001 (ip), vehicle: saline 95 % of control | dose: 200.0 mg/kg/injection, schedule: Q01DX001 (ip), vehicle: saline 95 % of control | dose: 400.0 mg/kg/injection, schedule: Q01DX001 (ip), vehicle: saline 103 % of control

CCOC(=O)CCC(I)C(=O)OCC (centres undefined)
inactive: dose: 3.75 mg/kg/injection, schedule: Q01DX010 (ip), vehicle: saline 98 % of control | dose: 15.0 mg/kg/injection, schedule: Q01DX010 (ip), vehicle: saline 90 % of control

CCOc1cc(OCC)c(OCC)cc1C=C(C#N)C#N
inactive: [11] 91 % of control | [16] 88 % of control

CN(Cc1ccccc1)C(=O)c1ccc(Cl)cc1
inactive: [11] 111 % of control | [18] 101 % of control | [12] 105 % of control | [16] 100 % of control | [19] 89 % of control

CC(C)c1cccc(OS(=O)(=O)c2ccccc2[N+](=O)[O-])c1
inactive: [17] 105 % of control | dose: 50.0 mg/kg/injection, schedule: Q01DX009 (ip), vehicle: saline with Tween-80 105 % of control | [5] 105 % of control | [2] 93 % of control | [4] 96 % of control

O=C(O)c1cc(S(=O)(=O)O)cc([N+](=O)[O-])c1O
inactive: [18] 96 % of control | dose: 200.0 mg/kg/injection, schedule: Q04DX002 (ip), vehicle: Klucel (hydroxypropylcellulose) (HPC) 104 % of control | [19] 96 % of control

CCC[CH2][Sn]1([CH2]CCC)[O]C(=O)CCC(=O)[O]1
inactive: dose: 1.56 mg/kg/injection, schedule: Q01DX009 (ip), vehicle: Klucel (hydroxypropylcellulose) (HPC) 113 % of control | dose: 3.12 mg/kg/injection, schedule: Q01DX009 (ip), vehicle: Klucel (hydroxypropylcellulose) (HPC) 87 % of control

O=NN(CCCl)C(=O)NC1CCSCC1
inactive: dose: 0.5 mg/kg/injection, schedule: Q01DX001 (ip), vehicle: carboxymethylcellulose (CMC) 104 % of control | dose: 1.0 mg/kg/injection, schedule: Q01DX001 (ip), vehicle: carboxymethylcellulose (CMC) 104 % of control | dose: 21.0 mg/kg/injection, schedule: Q01DX001 (ip), vehicle: carboxymethylcellulose (CMC) 122 % of control | dose: 24.0 mg/kg/injection, schedule: Q01DX001 (ip), vehicle: carboxymethylcellulose (CMC) 90 % of control
active: dose: 4.0 mg/kg/injection, schedule: Q01DX001 (ip), vehicle: carboxymethylcellulose (CMC) 179 % of control | dose: 5.0 mg/kg/injection, schedule: Q01DX001 (ip), vehicle: carboxymethylcellulose (CMC) 226 % of control | dose: 6.0 mg/kg/injection, schedule: Q01DX001 (ip), vehicle: carboxymethylcellulose (CMC) 203 % of control and 277 % of control | dose: 8.0 mg/kg/injection, schedule: Q01DX001 (ip), vehicle: carboxymethylcellulose (CMC) 290 % of control and 319 % of control and 322 % of control | dose: 9.0 mg/kg/injection, schedule: Q01DX001 (ip), vehicle: carboxymethylcellulose (CMC) 312 % of control | dose: 12.0 mg/kg/injection, schedule: Q01DX001 (ip), vehicle: carboxymethylcellulose (CMC) 319 % of control and 322 % of control | dose: 14.0 mg/kg/injection, schedule: Q01DX001 (ip), vehicle: carboxymethylcellulose (CMC) 312 % of control | dose: 16.0 mg/kg/injection, schedule: Q01DX001 (ip), vehicle: carboxymethylcellulose (CMC) 234 % of control | dose: 18.0 mg/kg/injection, schedule: Q01DX001 (ip), vehicle: carboxymethylcellulose (CMC) 158 % of control

From PubChem BioAssay AID248 (DTP/NCI, 2004)
